One compound from article PMC6107105, “Update on drug development targeting parasite cysteine proteases” (PLoS Neglected Tropical Diseases, 2018) can be followed below.

One data set deals with cynomolgus monkeys. Briefly: Pilot multiple dose safety/pharmacokinetic 7-day non-GLP study in cynomolgus monkeys (SRI study M158-01). In kind it is in vivo. The following applies: 200 mg/Kg once daily for 7 days.
Details of data set [1]: species or system NHPs. The following applies: in vivo, 200 mg/kg.
The subject of data set [2] is Sprague-Dawley rats. Briefly: 14-day GLP toxicity study in Sprague-Dawley rats (SRI study M602-08). In kind it is in vivo.
For the next data set, the system named is rats. Briefly: 7-Day non-GLP Toxicity Study in Rats (SRI study M587-08). Type of data set: in vivo. The following applies: 50 or 150 mg/Kg/day for 7 days.
The subject of the next data set is dogs. Briefly: 7-day non-GLP toxicity study in dogs (SRI study M138-00). In kind it is in vivo. The settings on record: orally as solid in gelatin capsules, 100 mg/kg daily for 7 days, 2 dogs.
The subject of data set [3] is Sprague-Dawley rats. Briefly: Acute intravenous non-GLP toxicity study in rats (SRI study M001-98). In kind it is in vivo. The settings on record: male and female Sprague-Dawley rats.

For `CN1CCN(C(=O)N[C@@H](Cc2ccccc2)C(=O)N[C@H](/C=C/S(=O)(=O)c2ccccc2)CCc2ccccc2)CC1.Cl` [K777 HCl], the mortality or morbidity result in the data set on cynomolgus monkeys is recorded as “No mortality or morbidity was observed following the administration of K777 HCl at 200 mg/Kg once daily for 7 days”. In data set [1], the AUC – broadly, the area under the concentration-time curve, a measure of exposure – worked out at 32500 ng·h/mL; the Cmax (usually the highest concentration seen after dosing) was found to be 4500 ng/mL; the Tmax (commonly the time from dosing to the highest level) was determined as 4 h; the half-life – broadly, how long it takes for the measured level to halve – was roughly 4 h. Moreover, the “mortality or treatment-related adverse clinical signs” value in the data set on Sprague-Dawley rats [2] (14-day, any dose level, SRI study M602-08) is given as “No mortality or treatment-related adverse clinical signs were observed following the administration of K777 HCl at any dose level”. In addition, in the data set on Sprague-Dawley rats [2] (rat, in vivo), the “changes in clinical chemistry parameters (total protein, potassium, phosphorus, creatinine increases; blood urea nitrogen decrease)” value is on record as “not considered biologically significant”; the “effects on hematology, urinalysis, or ophthalmology parameters” value was “no treatment-related adverse effects”; the histopathology result is recorded as “No treatment-related histopathological abnormalities”. The tolerability entry with rats (male and female rats, SRI study M587-08) is “well tolerated”. For the same compound, in the data set on rats (rats), the “liver effects at the doses employed” value was “mild and transient”; the “target organ of toxicity” value is recorded as “liver”. Further, the mortality or morbidity result in the data set with dogs was “K777 HCl was administered orally as a solid in gelatin capsules to 2 dogs (1 male and 1 female) at 100 mg/kg daily for 7 days. No mortality or morbidity was observed in this study”. Moreover, the “dose producing mortality and adverse clinical signs” value with Sprague-Dawley rats [3] was “K777 HCl administered IV to male and female Sprague-Dawley rats produced mortality and adverse clinical signs at 150 mg/Kg and higher”.
